Structures are written as SMILES. pIC50: −log10 of the molar value. Bridge positions count the residues as written; N and C are the ends. Square brackets hold non-standard residues; d marks the D form. Peptide text beside a SMILES is read from it. * marks the point of attachment. ξ: configuration not given here. Bip = N[C@@H](Cc1ccc(-c2ccccc2)cc1)C(=O)O; Phe(3-Me) = Cc1cccc(C[C@H](N)C(=O)O)c1; Cha = N[C@@H](CC1CCCCC1)C(=O)O; Cit = NC(=O)NCCC[C@H](N)C(=O)O; aThr = C[C@H](O)[C@H](N)C(=O)O; Thr(3ξ) = CC(O)[C@H](N)C(=O)O; Carboxymethyl = O=C(O)C*; Orn = NCCC[C@H](N)C(=O)O; Aun = NCCCCCCCCCCC(=O)O; Dab = NCC[C@H](N)C(=O)O

The target of the test is T1, PD-1/PD-L1 interaction (PE-labeled human PD-L1-Ig binding to Jurkat cell line over-expressing human PD-1) (Homo sapiens, UniProt Q15116).
T1 construct: expressed in transfected cells; host or cells: Jurkat
T1 sequence (Q15116 25-288): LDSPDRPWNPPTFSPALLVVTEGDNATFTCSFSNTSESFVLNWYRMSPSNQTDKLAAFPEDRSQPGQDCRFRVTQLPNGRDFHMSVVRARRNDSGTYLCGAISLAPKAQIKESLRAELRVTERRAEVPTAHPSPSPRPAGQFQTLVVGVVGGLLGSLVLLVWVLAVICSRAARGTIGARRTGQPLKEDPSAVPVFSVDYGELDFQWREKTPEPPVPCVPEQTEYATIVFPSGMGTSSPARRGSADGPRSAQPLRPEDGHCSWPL
Description: Jurkat-PD-1 Cell Binding High-Content Screening Assay (CBA). The settings on record: Jurkat cell line over-expressing human PD-1; PE-labeled PD-L1-Ig 20 nM final; read-out: Jurkat hPD1-PDL1 IC50. Type of test: cell-based. The procedure, abridged: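 First, compound is added to PD-1-expressing Jurkat cells in serum-containing DMEM and left 2 h at 37° C. Next, PE-conjugated PD-L1-Ig is introduced at 20 nM final concentration for 1 hour. Finally, cells are fixed in 4% paraformaldehyde with Hoechst 33342, washed and imaged.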
Regarding `Cc1cccc(C[C@@H]2NC(=O)[C@H](CC(=O)O)NC(=O)[C@H](Cc3ccc(OCC(=O)O)cc3)NC(=O)[C@H](CCCNC(=N)N)NC(=O)CSC[C@@H](C(=O)N[C@@H](CCN)C(=O)NCCCCCCCCCCC(=O)O)NC(=O)[C@H](C(C)O)NC(=O)[C@H](C(C)C)NC(=O)[C@H](CC3CCCCC3)NC(=O)[C@H](CCN)NC(=O)[C@@H](CC(C)C)NC(=O)[C@H](CCC(=O)O)NC(=O)[C@H](Cc3ccc(O)cc3)NC(=O)[C@H](Cc3ccc(-c4ccccc4)cc3)NC(=O)[C@H](Cc3ccc(O)cc3)NC2=O)c1` (stereo partly drawn) [Compound 3373] ({CH2CO}-RY(Carboxymethyl)D[Phe(3-Me)]Y[Bip]YE[dL][Dab][Cha]V[Thr(3ξ)]C[Dab][Aun]-OH; thioether N-14), the pIC50 (as a rule, the IC50 on a negative log10 scale, so that one unit is a factor of ten) was 7.56.
On to `Cc1cccc(C[C@@H]2NC(=O)[C@H](CC(=O)O)NC(=O)[C@H](Cc3ccc(OCC(=O)O)cc3)NC(=O)[C@H](CC(N)=O)NC(=O)CSC[C@@H](C(=O)N[C@@H](CCN)C(=O)NCCCCCCCCCCC(=O)O)NC(=O)[C@H](C(C)O)NC(=O)[C@H](C(C)C)NC(=O)[C@H](CC3CCCCC3)NC(=O)[C@H](CCN)NC(=O)[C@@H](CC(C)C)NC(=O)[C@H](CCN)NC(=O)[C@H](Cc3ccc(O)cc3)NC(=O)[C@H](Cc3ccc(-c4ccccc4)cc3)NC(=O)[C@H](CC(C)C)NC2=O)c1` (stereo partly drawn) [Compound 3374] ({CH2CO}-NY(Carboxymethyl)D[Phe(3-Me)]L[Bip]Y[Dab][dL][Dab][Cha]V[Thr(3ξ)]C[Dab][Aun]-OH; thioether N-14), for which the pIC50 was 7.50.
In the case of `Cc1cccc(C[C@@H]2NC(=O)[C@H](CC(=O)O)NC(=O)[C@H](Cc3ccc(OCC(=O)O)cc3)NC(=O)[C@H](CC(N)=O)NC(=O)CSC[C@@H](C(=O)NCCCCCCCCCCC(=O)O)NC(=O)[C@H](CCC(=O)O)NC(=O)[C@H](C(C)C)NC(=O)[C@H](CC3CCCCC3)NC(=O)[C@H](CCN)NC(=O)[C@@H](CC(C)C)NC(=O)[C@H](CCCN)NC(=O)[C@H](Cc3ccc(O)cc3)NC(=O)[C@H](Cc3ccc(-c4ccccc4)cc3)NC(=O)[C@H](C(C)C)NC2=O)c1` [Compound 3375] ({CH2CO}-NY(Carboxymethyl)D[Phe(3-Me)]V[Bip]Y[Orn][dL][Dab][Cha]VEC[Aun]-OH; thioether N-14), the pIC50 is 7.91.
The value for `Cc1cccc(C[C@@H]2NC(=O)[C@H](CC(=O)O)NC(=O)[C@H](Cc3ccc(OCC(=O)O)cc3)NC(=O)[C@H](CC(N)=O)NC(=O)CSC[C@@H](C(=O)N[C@@H](CCC(=O)O)C(=O)NCCCCCCCCCCC(=O)O)NC(=O)[C@H]([C@H](C)O)NC(=O)[C@H](C(C)C)NC(=O)[C@H](CC3CCCCC3)NC(=O)[C@H](CCN)NC(=O)[C@@H](CC(C)C)NC(=O)[C@H](CCCN)NC(=O)[C@H](Cc3ccc(O)cc3)NC(=O)[C@H](Cc3ccc(-c4ccccc4)cc3)NC(=O)[C@H](C(C)C)NC2=O)c1` [Compound 3376] ({CH2CO}-NY(Carboxymethyl)D[Phe(3-Me)]V[Bip]Y[Orn][dL][Dab][Cha]V[aThr]CE[Aun]-OH; thioether N-14) was 7.83; that for `Cc1cccc(C[C@@H]2NC(=O)[C@H](CC(=O)O)NC(=O)[C@H](Cc3ccc(OCC(=O)O)cc3)NC(=O)[C@H](CC(N)=O)NC(=O)CSC[C@@H](C(=O)N[C@@H](CCN)C(=O)NCCCCCCCCCCC(=O)O)NC(=O)[C@H]([C@H](C)O)NC(=O)[C@H](C(C)C)NC(=O)[C@H](CC3CCCCC3)NC(=O)[C@H](CCN)NC(=O)[C@@H](CC(C)C)NC(=O)[C@H](CCCN)NC(=O)[C@H](Cc3ccc(O)cc3)NC(=O)[C@H](Cc3ccc(-c4ccccc4)cc3)NC(=O)[C@H](C(C)C)NC2=O)c1` [Compound 3377] ({CH2CO}-NY(Carboxymethyl)D[Phe(3-Me)]V[Bip]Y[Orn][dL][Dab][Cha]V[aThr]C[Dab][Aun]-OH; thioether N-14) was 7.87.
The value for `Cc1cccc(C[C@@H]2NC(=O)[C@H](CC(=O)O)NC(=O)[C@H](Cc3ccc(OCC(=O)O)cc3)NC(=O)[C@H](CC(N)=O)NC(=O)CSC[C@@H](C(=O)N[C@@H](CCN)C(=O)NCCCCCCCCCCC(=O)O)NC(=O)[C@H](CCCNC(N)=O)NC(=O)[C@H](C(C)C)NC(=O)[C@H](CC3CCCCC3)NC(=O)[C@H](CCN)NC(=O)[C@@H](CC(C)C)NC(=O)[C@H](CCCN)NC(=O)[C@H](Cc3ccc(O)cc3)NC(=O)[C@H](Cc3ccc(-c4ccccc4)cc3)NC(=O)[C@H](C(C)C)NC2=O)c1` [Compound 3378] ({CH2CO}-NY(Carboxymethyl)D[Phe(3-Me)]V[Bip]Y[Orn][dL][Dab][Cha]V[Cit]C[Dab][Aun]-OH; thioether N-14) was 7.74; that for `Cc1cccc(C[C@@H]2NC(=O)[C@H](CC(=O)O)NC(=O)[C@H](Cc3ccc(OCC(=O)O)cc3)NC(=O)[C@H](CC(N)=O)NC(=O)CSC[C@@H](C(=O)N[C@@H](CCN)C(=O)NCCCCCCCCCCC(=O)O)NC(=O)[C@H](CCC(=O)O)NC(=O)[C@H](C(C)C)NC(=O)[C@H](CC3CCCCC3)NC(=O)[C@H](CCN)NC(=O)[C@@H](CC(C)C)NC(=O)[C@H](CCCN)NC(=O)[C@H](Cc3ccc(O)cc3)NC(=O)[C@H](Cc3ccc(-c4ccccc4)cc3)NC(=O)[C@H](C(C)C)NC2=O)c1` [Compound 3379] ({CH2CO}-NY(Carboxymethyl)D[Phe(3-Me)]V[Bip]Y[Orn][dL][Dab][Cha]VEC[Dab][Aun]-OH; thioether N-14) was 8.02; that for `Cc1cccc(C[C@@H]2NC(=O)[C@H](CC(=O)O)NC(=O)[C@H](Cc3ccc(OCC(=O)O)cc3)NC(=O)[C@H](CCCNC(=N)N)NC(=O)CSC[C@@H](C(=O)N[C@@H](CCN)C(=O)NCCCCCCCCCCC(=O)O)NC(=O)[C@H](CCC(N)=O)NC(=O)[C@H](C(C)C)NC(=O)[C@H](CC3CCCCC3)NC(=O)[C@H](CCN)NC(=O)[C@@H](CC(C)C)NC(=O)[C@H](CCCN)NC(=O)[C@H](Cc3ccc(O)cc3)NC(=O)[C@H](Cc3ccc(-c4ccccc4)cc3)NC(=O)[C@H](CC(C)C)NC2=O)c1` [Compound 3380] ({CH2CO}-RY(Carboxymethyl)D[Phe(3-Me)]L[Bip]Y[Orn][dL][Dab][Cha]VQC[Dab][Aun]-OH; thioether N-14) was 7.69.
With `Cc1cccc(C[C@@H]2NC(=O)[C@H](CC(=O)O)NC(=O)[C@H](Cc3ccc(OCC(=O)O)cc3)NC(=O)[C@H](CCCNC(=N)N)NC(=O)CSC[C@@H](C(=O)N[C@@H](CCN)C(=O)NCCCCCCCCCCC(=O)O)NC(=O)[C@H](CCC(=O)O)NC(=O)[C@H](C(C)C)NC(=O)[C@H](CC3CCCCC3)NC(=O)[C@H](CCN)NC(=O)[C@@H](CC(C)C)NC(=O)[C@H](CCCN)NC(=O)[C@H](Cc3ccc(O)cc3)NC(=O)[C@H](Cc3ccc(-c4ccccc4)cc3)NC(=O)[C@H](Cc3ccc(O)cc3)NC2=O)c1` [Compound 3381] ({CH2CO}-RY(Carboxymethyl)D[Phe(3-Me)]Y[Bip]Y[Orn][dL][Dab][Cha]VEC[Dab][Aun]-OH; thioether N-14), the negative logarithm of the IC50 (pIC50) is 8.05.
The value for `Cc1cccc(C[C@@H]2NC(=O)[C@H](CC(=O)O)NC(=O)[C@H](Cc3ccc(OCC(=O)O)cc3)NC(=O)[C@H](CCCNC(=N)N)NC(=O)CSC[C@@H](C(=O)N[C@@H](CCN)C(=O)NCCCCCCCCCCC(=O)O)NC(=O)[C@H](CCC(N)=O)NC(=O)[C@H](C(C)C)NC(=O)[C@H](CC3CCCCC3)NC(=O)[C@H](CCN)NC(=O)[C@@H](CC(C)C)NC(=O)[C@H](CCCN)NC(=O)[C@H](Cc3ccc(O)cc3)NC(=O)[C@H](Cc3ccc(-c4ccccc4)cc3)NC(=O)[C@H](Cc3ccc(O)cc3)NC2=O)c1` [Compound 3382] ({CH2CO}-RY(Carboxymethyl)D[Phe(3-Me)]Y[Bip]Y[Orn][dL][Dab][Cha]VQC[Dab][Aun]-OH; thioether N-14) was 7.97; that for `Cc1cccc(C[C@@H]2NC(=O)[C@H](CC(=O)O)NC(=O)[C@H](Cc3ccc(OCC(=O)O)cc3)NC(=O)[C@H](CCCNC(=N)N)NC(=O)CSC[C@@H](C(=O)N[C@@H](CCN)C(=O)NCCCCCCCCCCC(=O)O)NC(=O)[C@H](CCCNC(N)=O)NC(=O)[C@H](C(C)C)NC(=O)[C@H](CC3CCCCC3)NC(=O)[C@H](CCN)NC(=O)[C@@H](CC(C)C)NC(=O)[C@H](CCCN)NC(=O)[C@H](Cc3ccc(OCC(=O)O)cc3)NC(=O)[C@H](Cc3ccc(-c4ccccc4)cc3)NC(=O)[C@H](C(C)C)NC2=O)c1` [Compound 3383] ({CH2CO}-RY(Carboxymethyl)D[Phe(3-Me)]V[Bip]Y(Carboxymethyl)[Orn][dL][Dab][Cha]V[Cit]C[Dab][Aun]-OH; thioether N-14) was 8.09; that for `Cc1cccc(C[C@@H]2NC(=O)[C@H](CC(=O)O)NC(=O)[C@H](Cc3ccc(OCC(=O)O)cc3)NC(=O)[C@H](CCCNC(=N)N)NC(=O)CSC[C@@H](C(=O)N[C@@H](CCN)C(=O)NCCCCCCCCCCC(=O)O)NC(=O)[C@H](CCC(=O)O)NC(=O)[C@H](C(C)C)NC(=O)[C@H](CC3CCCCC3)NC(=O)[C@H](CCN)NC(=O)[C@@H](CC(C)C)NC(=O)[C@H](CCCN)NC(=O)[C@H](CCC(N)=O)NC(=O)[C@H](Cc3ccc(-c4ccccc4)cc3)NC(=O)[C@H](C(C)C)NC2=O)c1` [Compound 3384] ({CH2CO}-RY(Carboxymethyl)D[Phe(3-Me)]V[Bip]Q[Orn][dL][Dab][Cha]VEC[Dab][Aun]-OH; thioether N-14) was 8.04.
The value for `CSCC[C@@H]1NC(=O)[C@H](Cc2ccc(-c3ccccc3)cc2)NC(=O)[C@H](C(C)C)NC(=O)[C@H](Cc2cccc(C)c2)NC(=O)[C@H](CC(=O)O)NC(=O)[C@H](Cc2ccc(OCC(=O)O)cc2)NC(=O)[C@H](CCCNC(=N)N)NC(=O)CSC[C@@H](C(=O)N[C@@H](CCN)C(=O)NCCCCCCCCCCC(=O)O)NC(=O)[C@H](CCC(N)=O)NC(=O)[C@H](C(C)C)NC(=O)[C@H](CC2CCCCC2)NC(=O)[C@H](CCN)NC(=O)[C@@H](CC(C)C)NC(=O)[C@H](CCCN)NC1=O` [Compound 3385] ({CH2CO}-RY(Carboxymethyl)D[Phe(3-Me)]V[Bip]M[Orn][dL][Dab][Cha]VQC[Dab][Aun]-OH; thioether N-14) was 7.78.

For the origin of these results see patent US20260022142A1, “MACROCYCLIC IMMUNOMODULATORS” (Bristol-Myers Squibb Company, priority 2022, published 2026).
